Among the data in US20240270720A1, “INDAZOLE YL BENZIMIDAZOLE DERIVATIVE OR PHARMACEUTICALLY ACCEPTABLE SALT THEREOF, AND USE THEREOF” (INDUSTRY-UNIVERSITY COOPERATION FOUNDATION HANYANG …, priority 2021, published 2024) are IC50 and melting point values, retold here.

In one series the target is T1, FLT3 wild type (Homo sapiens, UniProt P36888).
T1 construct: purchased Reaction Biology Corp. (Kinase HotSpot service)
T1 sequence (P36888 27-993): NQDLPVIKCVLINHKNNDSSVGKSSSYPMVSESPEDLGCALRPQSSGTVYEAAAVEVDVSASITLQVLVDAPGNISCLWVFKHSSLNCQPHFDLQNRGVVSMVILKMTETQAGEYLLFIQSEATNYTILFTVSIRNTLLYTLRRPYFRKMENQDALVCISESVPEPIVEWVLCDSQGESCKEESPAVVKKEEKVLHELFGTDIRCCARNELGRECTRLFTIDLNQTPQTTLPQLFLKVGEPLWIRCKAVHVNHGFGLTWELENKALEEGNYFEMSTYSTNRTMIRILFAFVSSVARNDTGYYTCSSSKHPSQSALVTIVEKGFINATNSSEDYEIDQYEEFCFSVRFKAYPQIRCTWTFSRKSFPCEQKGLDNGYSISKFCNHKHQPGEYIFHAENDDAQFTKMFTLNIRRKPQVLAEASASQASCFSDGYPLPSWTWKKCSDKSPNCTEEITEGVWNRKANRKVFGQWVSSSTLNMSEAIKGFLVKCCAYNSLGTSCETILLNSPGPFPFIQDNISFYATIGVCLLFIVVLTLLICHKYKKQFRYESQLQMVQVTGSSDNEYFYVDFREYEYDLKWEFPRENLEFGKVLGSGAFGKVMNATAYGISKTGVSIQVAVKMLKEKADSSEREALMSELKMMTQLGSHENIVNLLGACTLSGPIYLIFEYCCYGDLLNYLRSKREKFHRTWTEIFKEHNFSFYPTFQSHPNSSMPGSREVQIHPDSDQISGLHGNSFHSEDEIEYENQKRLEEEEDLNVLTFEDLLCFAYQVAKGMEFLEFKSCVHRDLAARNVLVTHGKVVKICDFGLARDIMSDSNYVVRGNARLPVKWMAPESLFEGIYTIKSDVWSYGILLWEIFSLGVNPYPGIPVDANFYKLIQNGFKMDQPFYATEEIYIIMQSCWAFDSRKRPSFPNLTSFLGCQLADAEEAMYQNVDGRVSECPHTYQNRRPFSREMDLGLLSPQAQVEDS
Kind of series: Kinase HotSpot radiometric kinase assay (Reaction Biology). The class given is biochemical.

The next series deals with T2, FLT3 (D835Y) (Homo sapiens, UniProt P36888, D835Y).
T2 sequence (P36888 27-993 D835Y): T1 sequence (P36888 27-993) with D809Y
Kind of series: Kinase HotSpot radiometric kinase assay (Reaction Biology).

[1] abbreviates: read-out: FLT3 (D835Y) IC50, Table 1.

Where a chain is given by its changes, count along the chain named. Like-named read-outs stand apart in the source and are kept apart here.

Method for FLT3 (D835Y): (§1) Reaction Biology Corp. Kinase HotSpot SM service (www.reactionbiology.com) was used to determine IC50 values for all compounds and kinase profiles. The analysis protocol was as follows: In a final reaction volume of 25 μL, a peptide substrate, [[sequence]], 5 μM, ATP 10 μM, and FLT3(h) (5 to 10 mU) were incubated with 25 mM Tris pH 7.5, 0.02 mM EGTA, 0.66 mg/mL myelin basic protein, 10 mM Mg acetate and [γ-33P-ATP] (a concentration of approximately 500 cpm/pmol was required for specific activity). The reaction was initiated by adding the Mg-ATP mixture. After incubation at room temperature for 40 minutes, the reaction was stopped by adding 5 μL of a 3% phosphoric acid solution. Thereafter, 10 μL of the reactant was spotted on a P30 filter mat and washed three times for 5 minutes in 75 mM phosphoric acid and once in methanol before drying and scintillation counting.
Method for FLT3 wild type: as §1

As usually defined, the IC50 is the concentration at which inhibition is half-maximal. The melting point is the temperature of the solid-liquid transition. On to `CCN(CC)C1CCN(c2cc(C(=O)Nc3ccc4[nH]c(-c5ccc6cn[nH]c6c5)nc4c3)cc(C(F)(F)F)c2)C1` (stereo not drawn) [Compound 8o, N-(2-(1H-indazol-6-yl)-1H-benzo[di]imidazol-5-yl)-3-(3-(diethylamino)pyrrolidin-1-yl)-5-(trifluoromethyl)benzamide], for which the melting point fell in the range of 221 to 223 °C. Also, the IC50 on FLT3 wild type (Table 1, read-out: FLT3 IC50) was 841 nM. Further, at FLT3 (D835Y) (setting [1]), the IC50 turned out to be 120 nM.

`O=C(Nc1ccc2[nH]c(-c3ccc4cn[nH]c4c3)nc2c1)c1cc(N2CCN(C3CC3)CC2)cc(C(F)(F)F)c1` [Compound 8p, N-(2-(1H-indazol-6-yl)-1H-benzo[di]imidazol-5-yl)-3-(4-cyclopropylpiperazin-1-yl)-5-(trifluoromethyl)benzamide] gave a melting point of 154 to 156 °C. On FLT3 wild type (Table 1, read-out: FLT3 IC50), the half-maximal inhibitory concentration (IC50) was determined as 409 nM. The IC50 on FLT3 (D835Y) (setting [1]) was found to be 131 nM.

`CCN1CCC(Nc2cc(C(=O)Nc3ccc4[nH]c(-c5ccc6cn[nH]c6c5)nc4c3)cc(C(F)(F)F)c2)CC1` [Compound 8t, N-(2-(1H-indazol-6-yl)-1H-benzo[di]imidazol-5-yl)-3-((1-ethylpiperidin-4-yl)amino)-5-(trifluoromethyl)benzamide] showed a melting point of 166 to 168 °C. Further, at FLT3 wild type (Table 1, read-out: FLT3 IC50), the IC50 amounted to 286 nM. Moreover, at FLT3 (D835Y) (setting [1]), the IC50 came out at 87 nM.

`CCN1CCN(Cc2cc(C(=O)Nc3ccc4[nH]c(-c5ccc6cn[nH]c6c5)nc4c3)cc(C(F)(F)F)c2)CC1(C)C` [Compound 8y, N-(2-(1H-indazol-6-yl)-1H-benzo[di]imidazol-5-yl)-3-((4-ethyl-3,3-dimethylpiperazine-1-yl)methyl)-5-(trifluoromethyl)benzamide]: the melting point is 255 to 257 °C. Further, the half-inhibitory concentration (IC50) at FLT3 wild type (Table 1, read-out: FLT3 IC50) was determined as 145 nM. The half-inhibitory concentration (IC50) on FLT3 (D835Y) (setting [1]) came out at 42 nM.

For `CCN1CCN(c2cc(C(=O)Nc3ccc4[nH]c(-c5ccc6cn[nH]c6c5)nc4c3)cc(C(F)(F)F)c2)CC1(C)C` [Compound 8z, N-(2-(1H-indazol-6-yl)-1H-benzo[di]imidazol-5-yl)-3-(4-ethyl-3,3-dimethylpiperazine-1-yl)-5-(trifluoromethyl)benzamide], the melting point lay within 153 to 154 °C. The IC50 on FLT3 wild type (values given in nM, read-out: IC50 FLT3 wild type) worked out at 65.9 nM. Moreover, on FLT3 (D835Y), the IC50 was about 10 nM.
